Measurements reported in the NIST ThermoML archive (doi:10.1016/j.jct.2018.10.006).
± gives the expanded uncertainty stated by the source.

What was measured:
[1] = for molar entropy / mass density: 101.33 kPa; for mass density: X-ray diffraction
[2] = Molar enthalpy of transition or fusion; conditions: Crystal 2; DSC

O=P([O-])([O-])[O-].[Cs+].[Ni+2] [cesium nickel monophosphate]
[1]
Conditions	mass density [kg/m3]	molar entropy [J/K/mol]
5 K, Crystal 2, Small (less than 1 g) adiabatic calorimetry	–	0.4664 ± 0.034
6 K, Crystal 2, Small (less than 1 g) adiabatic calorimetry	–	0.6618 ± 0.041
7 K, Crystal 2, Small (less than 1 g) adiabatic calorimetry	–	0.8896 ± 0.05
8 K, Crystal 2, Small (less than 1 g) adiabatic calorimetry	–	1.147 ± 0.058
9 K, Crystal 2, Small (less than 1 g) adiabatic calorimetry	–	1.438 ± 0.067
10 K, Crystal 2, Small (less than 1 g) adiabatic calorimetry	–	1.763 ± 0.083
15 K, Crystal 2, Small (less than 1 g) adiabatic calorimetry	–	3.941 ± 0.16
20 K, Crystal 2, Small (less than 1 g) adiabatic calorimetry	–	6.944 ± 0.14
25 K, Crystal 2, Small (less than 1 g) adiabatic calorimetry	–	10.43 ± 0.18
30 K, Crystal 2, Small (less than 1 g) adiabatic calorimetry	–	14.35 ± 0.25
35 K, Crystal 2, Small (less than 1 g) adiabatic calorimetry	–	18.52 ± 0.3
40 K, Crystal 2, Small (less than 1 g) adiabatic calorimetry	–	22.78 ± 0.36
45 K, Crystal 2, Small (less than 1 g) adiabatic calorimetry	–	27.1 ± 0.35
50 K, Crystal 2, Small (less than 1 g) adiabatic calorimetry	–	31.46 ± 0.39
60 K, Crystal 2, Small (less than 1 g) adiabatic calorimetry	–	40.28 ± 0.48
70 K, Crystal 2, Small (less than 1 g) adiabatic calorimetry	–	49.01 ± 0.57
80 K, Crystal 2, Small (less than 1 g) adiabatic calorimetry	–	57.49 ± 0.67
90 K, Crystal 2, Small (less than 1 g) adiabatic calorimetry	–	65.63 ± 0.76
100 K, Crystal 2, Small (less than 1 g) adiabatic calorimetry	–	73.47 ± 0.84
110 K, Crystal 2, Small (less than 1 g) adiabatic calorimetry	–	81.12 ± 0.91
120 K, Crystal 2, Small (less than 1 g) adiabatic calorimetry	–	88.55 ± 1
130 K, Crystal 2, Small (less than 1 g) adiabatic calorimetry	–	95.7 ± 1.1
140 K, Crystal 2, Small (less than 1 g) adiabatic calorimetry	–	102.6 ± 1.2
150 K, Crystal 2, Small (less than 1 g) adiabatic calorimetry	–	109.34 ± 1.2
160 K, Crystal 2, Small (less than 1 g) adiabatic calorimetry	–	115.9 ± 1.2
170 K, Crystal 2, Small (less than 1 g) adiabatic calorimetry	–	122.31 ± 1.3
180 K, Crystal 2, Small (less than 1 g) adiabatic calorimetry	–	128.54 ± 1.4
190 K, Crystal 2, Small (less than 1 g) adiabatic calorimetry	–	134.69 ± 1.4
200 K, Crystal 2, Small (less than 1 g) adiabatic calorimetry	–	140.68 ± 1.5
210 K, Crystal 2, Small (less than 1 g) adiabatic calorimetry	–	146.58 ± 1.6
220 K, Crystal 2, Small (less than 1 g) adiabatic calorimetry	–	152.32 ± 1.6
230 K, Crystal 2, Small (less than 1 g) adiabatic calorimetry	–	157.89 ± 1.7
240 K, Crystal 2, Small (less than 1 g) adiabatic calorimetry	–	163.38 ± 1.7
250 K, Crystal 2, Small (less than 1 g) adiabatic calorimetry	–	168.7 ± 1.7
260 K, Crystal 2, Small (less than 1 g) adiabatic calorimetry	–	173.94 ± 1.8
270 K, Crystal 2, Small (less than 1 g) adiabatic calorimetry	–	179.09 ± 1.9
273.15 K, Crystal 2, Small (less than 1 g) adiabatic calorimetry	–	180.67 ± 1.9
280 K, Crystal 2, Small (less than 1 g) adiabatic calorimetry	–	184.17 ± 1.9
290 K, Crystal 2, Small (less than 1 g) adiabatic calorimetry	–	189.15 ± 2
298 K, Crystal 2	4218.3 ± 10	–
298.15 K, Crystal 2, Small (less than 1 g) adiabatic calorimetry	–	193.23 ± 2
300 K, Crystal 2, Small (less than 1 g) adiabatic calorimetry	–	194.14 ± 2
310 K, Crystal 2, Small (less than 1 g) adiabatic calorimetry	–	199.13 ± 2.1
320 K, Crystal 2, Small (less than 1 g) adiabatic calorimetry	–	204.04 ± 2.2
330 K, Crystal 2, Small (less than 1 g) adiabatic calorimetry	–	208.86 ± 2.2
340 K, Crystal 2, Small (less than 1 g) adiabatic calorimetry	–	213.68 ± 9.6
350 K, Crystal 2, Small (less than 1 g) adiabatic calorimetry	–	218.42 ± 9.9
360 K, Crystal 2, Small (less than 1 g) adiabatic calorimetry	–	223.08 ± 10
370 K, Crystal 2, Small (less than 1 g) adiabatic calorimetry	–	227.82 ± 10
380 K, Crystal 2, Small (less than 1 g) adiabatic calorimetry	–	232.47 ± 11
382.8 K, Crystal 1, DSC	–	237.46 ± 17
382.8 K, Crystal 2, Small (less than 1 g) adiabatic calorimetry	–	233.72 ± 11
390 K, Crystal 1, DSC	–	240.7 ± 17
400 K, Crystal 1, DSC	–	245.19 ± 17
410 K, Crystal 1, DSC	–	249.52 ± 17
420 K, Crystal 1, DSC	–	253.76 ± 18
430 K, Crystal 1, DSC	–	257.83 ± 18
440 K, Crystal 1, DSC	–	261.82 ± 18
450 K, Crystal 1, DSC	–	265.73 ± 18
460 K, Crystal 1, DSC	–	269.64 ± 19
470 K, Crystal 1, DSC	–	273.38 ± 19
473 K, Crystal 1	4124 ± 22	–
480 K, Crystal 1, DSC	–	277.04 ± 19
490 K, Crystal 1, DSC	–	280.7 ± 20
500 K, Crystal 1, DSC	–	284.27 ± 20
510 K, Crystal 1, DSC	–	287.76 ± 20
520 K, Crystal 1, DSC	–	291.17 ± 20
530 K, Crystal 1, DSC	–	294.58 ± 20
540 K, Crystal 1, DSC	–	297.91 ± 21
550 K, Crystal 1, DSC	–	301.23 ± 21
560 K, Crystal 1, DSC	–	304.48 ± 21
570 K, Crystal 1, DSC	–	307.64 ± 21
573 K, Crystal 1	4090 ± 80	–
580 K, Crystal 1, DSC	–	310.79 ± 22
590 K, Crystal 1, DSC	–	313.87 ± 22
600 K, Crystal 1, DSC	–	316.86 ± 22
610 K, Crystal 1, DSC	–	319.86 ± 22
620 K, Crystal 1, DSC	–	322.85 ± 22
630 K, Crystal 1, DSC	–	325.76 ± 23
640 K, Crystal 1, DSC	–	328.67 ± 23
650 K, Crystal 1, DSC	–	331.58 ± 23
673 K, Crystal 1	4080 ± 80	–
773 K, Crystal 1	4040 ± 18	–
873 K, Crystal 1	4030 ± 160	–
973 K, Crystal 1	4000 ± 80	–
1073 K, Crystal 1	3980 ± 60	–

Conditions	Triple point temperature [K]
[1], Crystal 2, DSC	382.8 ± 0.8

Conditions	Molar enthalpy of transition or fusion [kcal/mol]
[2]	0.336 ± 0.0287
